What was measured:
Experiment in all cases: relative viability (nuclei count vs DMSO), 5 days (fraction); higher = more cells survive
[1] = compound: CS(=O)(=O)c1ccc(C(=O)Nc2ccc(Cl)c(-c3ccccn3)c2)c(Cl)c1 [Vismodegib] + O=C(CCCCCCC(=O)Nc1ccccc1)NO [Vorinostat] (partner 1 µM)
Procedure, shortened: (§1)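 Lung cancer cell lines, seeded in 1536-well plates, were treated the following day by pin tool with a single drug or with five library-drug doses (not always all listed) in √10 steps on top of a fixed anchor-drug dose. Cells were fixed and nuclei stained in one step after 5 days, and nuclei were counted. Relative viability is the nuclei count for treated wells divided by that for vehicle wells, reported as medians of duplicate plates.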

[2] = compound: CS(=O)(=O)c1ccc(-c2cnc(N)c(C(=O)Nc3ccccc3)n2)cc1 [VE-821] + Cc1nc(NC(=O)N2CCC[C@H]2C(N)=O)sc1-c1ccnc(C(C)(C)C(F)(F)F)c1 [Alpelisib] (partner 2 µM)
Procedure, shortened: as §1

[3] = compound: CS(=O)(=O)c1ccc(C(=O)Nc2ccc(Cl)c(-c3ccccn3)c2)c(Cl)c1 [Vismodegib] + CC(=O)Nc1cccc(-n2c(=O)n(C3CC3)c(=O)c3c(Nc4ccc(I)cc4F)n(C)c(=O)c(C)c32)c1 [Trametinib] (partner 0.02 µM)
Procedure, shortened: as §1

[4] = compound: N#CC[C@H](C1CCCC1)n1cc(-c2ncnc3[nH]ccc23)cn1 [Ruxolitinib] + Cc1nc(Nc2ncc(C(=O)Nc3c(C)cccc3Cl)s2)cc(N2CCN(CCO)CC2)n1 [Dasatinib] (partner 0.075 µM)
Procedure, shortened: as §1

## LXF-289
[1]; first compound 0.08 µM
  relative viability: 0.787
[1]; first compound 0.253 µM
  relative viability: 0.724
[1]; first compound 0.8 µM
  relative viability: 0.846
[1]; first compound 2.53 µM
  relative viability: 0.731
[1]; first compound 8 µM
  relative viability: 0.629
[2]; first compound 0.08 µM
  relative viability: 1.14
[2]; first compound 0.253 µM
  relative viability: 1.06
[2]; first compound 0.8 µM
  relative viability: 1.02
[2]; first compound 2.53 µM
  relative viability: 1.2
[2]; first compound 8 µM
  relative viability: 1.18
[3]; first compound 0.08 µM
  relative viability: 0.675
[3]; first compound 0.253 µM
  relative viability: 0.654
[3]; first compound 0.8 µM
  relative viability: 0.723
[3]; first compound 2.53 µM
  relative viability: 0.664
[3]; first compound 8 µM
  relative viability: 0.648
[4]; first compound 0.08 µM
  relative viability: 0.192
[4]; first compound 0.253 µM
  relative viability: 0.191
[4]; first compound 0.8 µM
  relative viability: 0.216
[4]; first compound 2.53 µM
  relative viability: 0.135
[4]; first compound 8 µM
  relative viability: 0.0782

## PC-3 [JPC-3]
[1]; first compound 0.08 µM
  relative viability: 0.858
[1]; first compound 0.253 µM
  relative viability: 0.548
[1]; first compound 0.8 µM
  relative viability: 0.802
[1]; first compound 2.53 µM
  relative viability: 0.924
[1]; first compound 8 µM
  relative viability: 0.896
[2]; first compound 0.08 µM
  relative viability: 1.05
[2]; first compound 0.253 µM
  relative viability: 0.957
[2]; first compound 0.8 µM
  relative viability: 1.02
[2]; first compound 2.53 µM
  relative viability: 1.05
[2]; first compound 8 µM
  relative viability: 1.04
[3]; first compound 0.08 µM
  relative viability: 0.695
[3]; first compound 0.253 µM
  relative viability: 0.713
[3]; first compound 0.8 µM
  relative viability: 0.636
[3]; first compound 2.53 µM
  relative viability: 0.615
[3]; first compound 8 µM
  relative viability: 0.729
[4]; first compound 0.08 µM
  relative viability: 0.684
[4]; first compound 0.253 µM
  relative viability: 1.06
[4]; first compound 0.8 µM
  relative viability: 0.989
[4]; first compound 2.53 µM
  relative viability: 0.872
[4]; first compound 8 µM
  relative viability: 0.883

## NCI-H2009
[1]; first compound 0.08 µM
  relative viability: 0.724
[1]; first compound 0.253 µM
  relative viability: 0.921
[1]; first compound 0.8 µM
  relative viability: 0.723
[1]; first compound 2.53 µM
  relative viability: 0.708
[1]; first compound 8 µM
  relative viability: 0.722
[2]; first compound 0.08 µM
  relative viability: 1.11
[2]; first compound 0.253 µM
  relative viability: 1.18
[2]; first compound 0.8 µM
  relative viability: 1.12
[2]; first compound 2.53 µM
  relative viability: 1.19
[2]; first compound 8 µM
  relative viability: 1.28
[3]; first compound 0.08 µM
  relative viability: 0.313
[3]; first compound 0.253 µM
  relative viability: 0.321
[3]; first compound 0.8 µM
  relative viability: 0.309
[3]; first compound 2.53 µM
  relative viability: 0.291
[3]; first compound 8 µM
  relative viability: 0.331
[4]; first compound 0.08 µM
  relative viability: 0.354
[4]; first compound 0.253 µM
  relative viability: 0.263
[4]; first compound 0.8 µM
  relative viability: 0.273
[4]; first compound 2.53 µM
  relative viability: 0.129
[4]; first compound 8 µM
  relative viability: 0.176

## LK-2
[1]; first compound 0.08 µM
  relative viability: 0.246
[1]; first compound 0.253 µM
  relative viability: 0.31
[1]; first compound 0.8 µM
  relative viability: 0.294
[1]; first compound 2.53 µM
  relative viability: 0.286
[1]; first compound 8 µM
  relative viability: 0.239
[2]; first compound 0.08 µM
  relative viability: 1.14
[2]; first compound 0.253 µM
  relative viability: 1.17
[2]; first compound 0.8 µM
  relative viability: 0.925
[2]; first compound 2.53 µM
  relative viability: 1.29
[2]; first compound 8 µM
  relative viability: 0.672
[3]; first compound 0.08 µM
  relative viability: 0.645
[3]; first compound 0.253 µM
  relative viability: 0.726
[3]; first compound 0.8 µM
  relative viability: 0.628
[3]; first compound 2.53 µM
  relative viability: 0.831
[3]; first compound 8 µM
  relative viability: 0.615
[4]; first compound 0.08 µM
  relative viability: 0.287
[4]; first compound 0.253 µM
  relative viability: 0.339
[4]; first compound 0.8 µM
  relative viability: 0.332
[4]; first compound 2.53 µM
  relative viability: 0.32
[4]; first compound 8 µM
  relative viability: 0.349

## NCI-H1993
[1]; first compound 0.08 µM
  relative viability: 0.854
[1]; first compound 0.253 µM
  relative viability: 0.69
[1]; first compound 0.8 µM
  relative viability: 0.728
[1]; first compound 2.53 µM
  relative viability: 0.779
[1]; first compound 8 µM
  relative viability: 0.794
[2]; first compound 0.08 µM
  relative viability: 0.704
[2]; first compound 0.253 µM
  relative viability: 0.757
[2]; first compound 0.8 µM
  relative viability: 0.655
[2]; first compound 2.53 µM
  relative viability: 0.702
[2]; first compound 8 µM
  relative viability: 0.633
[3]; first compound 0.08 µM
  relative viability: 0.508
[3]; first compound 0.253 µM
  relative viability: 0.607
[3]; first compound 0.8 µM
  relative viability: 0.549
[3]; first compound 2.53 µM
  relative viability: 0.438
[3]; first compound 8 µM
  relative viability: 0.492
[4]; first compound 0.08 µM
  relative viability: 0.532
[4]; first compound 0.253 µM
  relative viability: 0.523
[4]; first compound 0.8 µM
  relative viability: 0.579
[4]; first compound 2.53 µM
  relative viability: 0.488
[4]; first compound 8 µM
  relative viability: 0.583

## HCC-15
[1]; first compound 0.08 µM
  relative viability: 0.844
[1]; first compound 0.253 µM
  relative viability: 0.774
[1]; first compound 0.8 µM
  relative viability: 0.86
[1]; first compound 2.53 µM
  relative viability: 0.781
[1]; first compound 8 µM
  relative viability: 0.859
[2]; first compound 0.08 µM
  relative viability: 0.976
[2]; first compound 0.253 µM
  relative viability: 0.923
[2]; first compound 0.8 µM
  relative viability: 1.01
[2]; first compound 2.53 µM
  relative viability: 0.999
[2]; first compound 8 µM
  relative viability: 0.961
[3]; first compound 0.08 µM
  relative viability: 0.356
[3]; first compound 0.253 µM
  relative viability: 0.352
[3]; first compound 0.8 µM
  relative viability: 0.345
[3]; first compound 2.53 µM
  relative viability: 0.401
[3]; first compound 8 µM
  relative viability: 0.383
[4]; first compound 0.08 µM
  relative viability: 0.661
[4]; first compound 0.253 µM
  relative viability: 0.492
[4]; first compound 0.8 µM
  relative viability: 0.675
[4]; first compound 2.53 µM
  relative viability: 0.439
[4]; first compound 8 µM
  relative viability: 0.286

## NCI-H322M
[1]; first compound 0.08 µM
  relative viability: 0.925
[1]; first compound 0.253 µM
  relative viability: 0.842
[1]; first compound 0.8 µM
  relative viability: 0.848
[1]; first compound 2.53 µM
  relative viability: 0.851
[1]; first compound 8 µM
  relative viability: 0.855
[2]; first compound 0.08 µM
  relative viability: 0.728
[2]; first compound 0.8 µM
  relative viability: 0.763
[2]; first compound 2.53 µM
  relative viability: 0.881
[2]; first compound 8 µM
  relative viability: 0.612
[3]; first compound 0.08 µM
  relative viability: 0.52
[3]; first compound 0.253 µM
  relative viability: 0.507
[3]; first compound 0.8 µM
  relative viability: 0.522
[3]; first compound 2.53 µM
  relative viability: 0.518
[3]; first compound 8 µM
  relative viability: 0.525
[4]; first compound 0.08 µM
  relative viability: 0.248
[4]; first compound 0.253 µM
  relative viability: 0.258
[4]; first compound 0.8 µM
  relative viability: 0.241
[4]; first compound 2.53 µM
  relative viability: 0.238
[4]; first compound 8 µM
  relative viability: 0.217

From the supplement of paper PMC10307832
